# Assay results taken from US20050142254A1 (priority 2003, published 2005).
# Like-named read-outs stand apart in the source and are kept apart here.
# Assays:
# [1] = type: biochemical; conditions: pH 7.5
# [2] = type: biochemical
# Experimental: […]. Here, 25 μL of 400 μM hemin suspension was added to it and incubated at 30° C. for 30 minutes. The final concentration of each component was: AFB1, 16 μM; hydrogen peroxide, 500 μM; Tween 80, 1%; hemin, 100 μM.
# After the reaction, HPLC and TLC analyses were performed to confirm the degradation of AFB1 and the formation of reaction product. The equal amount of ethyl acetate was added to the reaction mixture, and extraction was done by mixing with a Voltex mixer for 1 minute. The resulting mixture was centrifuged at 10,000×g for 2 minutes, and the ethyl acetate layer (upper layer) was recovered in a new 0.5-mL microtube.
# The extract was used for HPLC analysis in succession. The separation column used was a silica column, Shim-pack CLC-SIL (0.46×15 cm). […].
# AFB1 degradation was performed at 30° C. for 30 minutes in the same manner as in Example 1 except that the amount of hemin added was varied.
# After the reaction, the amount of remaining AFB1 and that of AFQ1 formed were measured quantitatively by HPLC.
# AFB1 degradation was performed at 30° C. for 30 minutes in the same manner as in Example 1 except that the amount of hydrogen peroxide added was varied.
# After the reaction, amount of the remaining AFB1 and that of AFQ1 formed were measured quantitatively by HPLC.
# (§1) AFB1 degradation was performed at 50° C. for 6 hours in the presence or absence of hemin with the same reaction mixture as used in Example 1. After the reaction, the reaction mixture was subjected to the mutagenicity test with Umlac. Ten percent of DMSO aqueous solution was prepared as a control without AFB1, and then subjected to the same mutagenicity test.
# [3] = Aniline degradation with hemin, HPLC; type: biochemical; conditions: 10 μM hemin, 50 μM aniline, 500 μM hydrogen peroxide, 30° C., reaction for 3 hours
# Experimental: […]. Under this condition, the reaction mixture was uniform, thus no detergent was added to it.
# After the reaction, equal amount of ethyl acetate was added to the reaction mixture, and extraction was done by mixing with a Voltex mixer for 1 minute, and then centrifuged at 10,000×g for 2 minutes. The resulting aniline-containing ethyl acetate layer (upper layer) was recovered in a new 0.5-mL microtube.
# The ethyl acetate extract was directly subjected to HPLC analysis to determine the amount of remaining aniline. The column used was STRODS-II (0.46×15 cm). For mobile phase, 10% acetonitrile aqueous solution was used at the flow rate of 0.5 mL/min. With a UV-visible spectrophotometric detector (Shimadzu SPD-6AV), the absorbance at wave length of 280 nm was monitored for aniline detection.
# [4] = Bisphenol A (BPA) degradation with hemin, HPLC; type: biochemical; conditions: 100 μM hemin, 400 μM BPA, 500 μM hydrogen peroxide, 30° C., reaction for 6 hours
# Experimental: […]. hydrogen peroxide, 500 μM; Tween 80, 1%; hemin, 100 μM.
# BPA degradation was confirmed by HPLC. After the reaction, a portion (100 μL) of the reaction mixture was taken, added to the equal amount of ethyl acetate, and extracted for 1 minute by mixing with a Voltex mixer. The mixture was centrifuged at 10,000×g for 2 minutes, and the ethyl acetate layer (upper layer) was recovered in a new 0.5-mL microtube.
# HPLC analysis was conducted using the extract. The column used was STR ODS-II (0.46×15 cm). For the mobile phase for BPA quantification, 50% acetonitrile aqueous solution containing 0.1% trifluoroacetic acid was used at the flow rate of 0.7 mL/min. A UV-visible spectrophotometric detector (Shimadzu SPD-6AV) was used at the absorbance wave length of 277 nm for BPA detection.
# For the mobile phase for the detection of BPA degradation product, 30% acetonitrile aqueous solution containing 0.1% trifluoroacetic acid was used at the flow rate of 0.5 mL/min. The absorbance at wave length of 280 nm was monitored for this detection.
# umu gene = type: cell-based
# Experimental: Mutagenecity test was performed with the AFB1 degradation reaction mixture after hemin treatment. In the test, a conventional mutagenicity test kit “Umlac” (Nippon Antibody Laboratory) was used. Umlac is a kit for short-period mutagenicity test, umu-test, which was developed by Shinagawa (Research Institute for Microbial Diseases, Osaka University), et al. The test is to measure the expression level of umu gene using β-galactosidase activity as an index. The umu gene is considered to be a kind of SOS gene whose expression is induced by DNA-damaging chemicals, and known to be directly concerned with mutation. It has been confirmed that test result of “Umlac” well correlates with those of the Ames test and the carcinogenicity test that are currently used for typical mutagenicity test.
# as §1
# Higher umu gene expression represents higher mutagenicity. The control value represents no mutagenicity.
# [5] = type: physicochemical
# From the text: (§2) We also confirmed that AFQ1 degradation is accelerated by heat, and it occurs non-enzymatically. Horseradish peroxidase (HRP) has a strong AFB1-degrading activity as well as hemin.
# [6] = type: biochemical; remark: listed apart in the source
# From the text: as §2
molecule,measurement,setting,value
hemin,aflatoxin M1 disappeared,[1],36%
same,AFB1 degraded,"[2]; 200 μM hemin, 16 μM AFB1, 30° C. for 30 minutes",approximately 25%
same,change in AFB1-degradation efficiency depending on hydrogen peroxide concentration,"[2]; hemin, hydrogen peroxide 1.0 mM to 10 mM, 30° C. for 30 minutes",no significant increase
same,remaining AFB1,"[2]; reaction mixture with hemin, 16 μM AFB1, 50° C. for 6 hours",≤ 0.16 µM
same,AFB1 added degraded,"[2]; reaction mixture with hemin, 50° C. for 6 hours",more than 99%
same,aniline relative to that initially added,[3],45%
same,amount of BPA relative to that initially added,[4],18%
same,umu Gene Expression (OD620),"umu gene; reaction mixture with AFB1 and hemin, treatment at 50° C. for 6 hours",0.523
"COc1cc2c(c3oc(=O)c4c(c13)CCC4=O)C1C=COC1O2 (stereo not shown) [AFB1, aflatoxin B1]",remaining AFB1,[2],12 µM
same,umu Gene Expression (OD620),umu gene,1.185
"COc1cc2c(c3oc(=O)c4c(c13)C(O)CC4=O)C1C=COC1O2 (stereo not shown) [AFQ1, aflatoxin Q1]","AFQ1 degradation, effect of temperature",[5],degraded much rapidly at 50 °C than 30 °C
HRP: Horseradish peroxidase,AFB1-degrading activity,[6],strong
same,"AFQ1-degradation rate, presence vs absence of HRP","[5]; 1 μM AFQ1 in phosphate buffer, 30° C. or 50° C.",no significant difference
